Experiments:
FZD1 CRD = biological target: T1, FZD1 CRD (Homo sapiens, UniProt Q9UP38); experiment: Flow cytometry of anti-FZD5 Fab binding to CHO cells overexpressing Frizzled CRD
T1 construct: D112-P238; GPI anchor signal (C); expressed in transfected cells; host or cells: CHO cells, lentiviral pLenti-puro
Experimental: (§1) Plasmids: pLCKO lentiviral vector used for knockout (TKO) library construction and expression of individual gRNAs was constructed as described previously (Hart et al., 2015). Briefly, single guide RNA (sgRNA) scaffold was amplified from px330 (Addgene 42230) and cloned into pLKO.TRC005 lentiviral vector (Broad Institute, Cambridge, Mass.) using AgeI/EcoRI restriction sites. BfuAI sites were added at the 5′ end of the sgRNA scaffold for cloning the TKO library or individual gRNA target sequences. Lenti Cas9-2A-BsdR vector used to generate Cas9 stable expression cell lines was constructed as described previously (Hart et al., 2015). Briefly, lentiCRISPR pXPR_001 (Addgene 49535) was modified through removal of the sgRNA scaffold region through NdeI/EcoRI digest and blunt ends generation using Large Klenow Fragment (NEB). 2A-puro was replaced with 2A-BsdR by PCR using the NheI/MluI sites. Each of the 10 human Frizzled cysteine rich domains (CRDs) were cloned into the lentiviral expression plasmid pLenti-puro in the following cassette: FZD_CRD-MYC-GPI.
(§2) Flow cytometry: Primary staining of cells was performed by treatment with 200 nM Frizzled profiler Fab. Alexa Fluor 488 AffiniPure F(ab′)2 was used as the secondary antibody (Jackson ImmunoResearch #109-546-097). c-Myc (9E10) IgG1 (primary antibody, Santa Cruz, lot #D0306) and Alexa Fluor 488 IgG (secondary antibody, Life technologies, lot #1458649) were used as controls. Dead cells were excluded by staining with Fixable Viability Dye eFluor 660 (eBioscience, catalogue number 65-0864). All reagents were used as per manufacturer's instructions. Flow cytometry was performed on a BD FACSCanto II flow cytometer (BD Biosciences), and data were analyzed with FlowJo software (FlowJo, LLC).
(§3) To confirm that the FZD5-WNT7B circuit is not driven simply by expression and rule out the possibility of a disconnect between RNA and protein levels for the Wnt receptors in HPAF-II cells, a panel of recombinant Fabs were generated, alternatively referred to herein as ‘Frizzled profiler’, that can detect and discriminate all but one of the ten Frizzled receptors. […] To characterize the binding specificity of these Fabs on cells, a panel of 10 CHO cell lines was generated, each expressing the CRD domain of a different myc-tagged Frizzled family member anchored at the plasma membrane through a GPI anchor (CHO-myc-FZDGPI). Despite the high sequence identity between Frizzled family members (FIG. 7A, FIG. 7B), selective Fabs were identified for FZD4, FZD5, FZD6 and FZD10 as assessed by immunofluorescence and flow cytometry (FIG. 7D and FIG. 8). […] The FZD8 CRD is most homologous to that of FZD5 (FIG. 7B). These Fabs can be used to discriminate expression of FZD1, FZD2, FZD4, FZD5, FZD6, FZD7, FZD8, FZD9 and FZD10 (FIG. 7D and FIG. 8). The ‘Frizzled profiler’ therefore consists of 10 different Fabs that can be used to discriminate expression of 9 different Frizzled family members. The Frizzled profiler was then used to confirm that HPAF-II cells express FZD1, FZD5, FZD6 and possibly FZD8 (FIG. 7E).
(§4) The binding of anti-FZD5 Fabs to cell surface-expressed Frizzled protein was further determined for each member of the Frizzled family via flow cytometry and immunofluorescence analysis of a panel of 10 CHO cell lines, each ectopically over-expressing the extracellular cysteine-rich domain (CRD) of a different Frizzled protein family member.

FZD10 CRD = biological target: T2, FZD10 CRD (Homo sapiens, UniProt Q9ULW2); experiment: as above
T2 construct: 30-156; GPI anchor signal (C); expressed in transfected cells; host or cells: CHO cells, lentiviral pLenti-puro
T2 sequence (Q9ULW2 30-156): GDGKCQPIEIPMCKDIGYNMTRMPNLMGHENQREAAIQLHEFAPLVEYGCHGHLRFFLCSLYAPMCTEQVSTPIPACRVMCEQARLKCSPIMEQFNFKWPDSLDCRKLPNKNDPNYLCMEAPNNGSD
Experimental: as §1, §2, §3, §4

FZD4 CRD [1] = biological target: T3, FZD4 CRD (Homo sapiens, UniProt Q9ULV1); experiment: as above
T3 construct: E42-V167; GPI anchor signal (C); expressed in transfected cells; host or cells: CHO cells, lentiviral pLenti-puro
T3 sequence (Q9ULV1 42-167): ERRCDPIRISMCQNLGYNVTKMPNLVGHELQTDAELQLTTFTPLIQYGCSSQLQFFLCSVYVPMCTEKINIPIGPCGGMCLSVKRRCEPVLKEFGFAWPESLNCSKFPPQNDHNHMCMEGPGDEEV
Experimental: as §1, §2, §3, §4

FZD4 CRD [2] = biological target: T3, FZD4 CRD; experiment: Immunofluorescence of anti-FZD5 Fab binding to CHO cells overexpressing Frizzled CRD; parameters: key: −: no binding; +: very weak binder; ++: weak binder; +++: good binder; ++++: very good binder
Experimental: as §1, §3, §4

FZD5 CRD = biological target: T4, FZD5 CRD (Homo sapiens, UniProt Q13467); experiment: as above; parameters: key: −: no binding; +: very weak binder; ++: weak binder; +++: good binder; ++++: very good binder
T4 construct: K29-T156; GPI anchor signal (C); expressed in transfected cells; host or cells: CHO cells, lentiviral pLenti-puro
T4 sequence (Q13467 29-156): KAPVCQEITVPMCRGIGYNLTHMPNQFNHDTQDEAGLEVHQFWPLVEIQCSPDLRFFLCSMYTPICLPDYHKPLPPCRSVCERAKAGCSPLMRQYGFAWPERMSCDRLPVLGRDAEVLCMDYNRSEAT
Experimental: as §1, §3, §4

ASPC-1 cells [3] = experiment: Effect of anti-FZD5 Fabs on proliferation of pancreatic cancer cell lines (percent growth inhibition); format: cell-based, human; conditions: Fab 10 μg/ml
Experimental: (§5) The effect of presently disclosed anti-FZD5 Fabs on proliferation of RNF43 loss-of-function mutant pancreatic cancer cell lines HPAFII, PATU8988S and ASPC-1; and on pancreatic cancer cell line RWP1, was tested at […] and 10 μg/ml.

HPAFII cells = experiment: as above; format: cell-based, human
Experimental: as §5

PATU8988S cells [4] = experiment: as above; format: cell-based, human; conditions: Fab 10 μg/ml
Experimental: as §5

RWP1 cells [5] = experiment: as above; format: cell-based, human; conditions: Fab 10 μg/ml
Experimental: as §5

[6] = test system: CHO cells not expressing Frizzled CRD; experiment: Flow cytometry of anti-FZD5 Fab binding to CHO cells not expressing Frizzled CRD (background)
Text: as §4

PATU8988S cells [7] = experiment: Effect of anti-FZD5 Fabs on proliferation of pancreatic cancer cell lines (percent growth inhibition); format: cell-based, human; conditions: Fab 2 μg/ml
ASPC-1 cells [8] = experiment: as above; format: cell-based, human; conditions: Fab 2 μg/ml
RWP1 cells [9] = experiment: as above; format: cell-based, human; conditions: Fab 2 μg/ml

Substance: Fab-2931: anti-FZD5 Fab with antibody variable region Fv-2931; CDR SEQ ID NOs: 35, 36, 70, 102, 146, 176 (CDR 1 QSVSSA; CDR 2 SAS; CDR 3 QQSSYSLIT; CDR 4 GFNLSYSS; CDR 5 ISPYSGST; CDR 6 ARGSYWYVGGGWWVSGHGGMDY)
- Median fluorescence, Frizzled CRD overexpressed on CHO cells: FZD1 (FZD1 CRD): 10.27
- Median fluorescence, Frizzled CRD overexpressed on CHO cells: FZD10 (FZD10 CRD): 2.59
- Median fluorescence, Frizzled CRD overexpressed on CHO cells: FZD4 (FZD4 CRD [1]): 3.65
- Immunofluorescence binding, Frizzled CRD overexpressed on CHO cells: FZD4 (FZD4 CRD [2]): −
- Immunofluorescence binding, Frizzled CRD overexpressed on CHO cells: FZD5 (FZD5 CRD): ++++
- percent growth inhibition, ASPC-1 10 μg/ml (ASPC-1 cells [3]): 39.20%
- percent growth inhibition, HPAFII 2 μg/ml (HPAFII cells; Fab 2 μg/ml): −19.38%
- percent growth inhibition, HPAFII 10 μg/ml (HPAFII cells; Fab 10 μg/ml): 11.37%
- percent growth inhibition, PATU8988s 10 μg/ml (PATU8988S cells [4]): −17.27%
- percent growth inhibition, RWP1 10 μg/ml (RWP1 cells [5]): 18.70%
- Median fluorescence, Frizzled CRD overexpressed on CHO cells: None [6]: 3.11
- percent growth inhibition, PATU8988s 2 μg/ml (PATU8988S cells [7]): −20.00%
- percent growth inhibition, ASPC-1 2 μg/ml (ASPC-1 cells [8]): 10.33%
- percent growth inhibition, RWP1 2 μg/ml (RWP1 cells [9]): 15.35%
